# Where “and” joins values, the source holds several entries; their conditions need not be identical. Equal entries are not always repeated. Where no end group is shown, it is not given here. [ ]: non-standard residue; d: D form. Oic = O=C(O)[C@@H]1C[C@@H]2CCCC[C@@H]2N1; Hyp = O=C(O)[C@@H]1C[C@@H](O)CN1; dTic = O=C(O)[C@H]1Cc2ccccc2CN1; 2Thi = N[C@@H](Cc1cccs1)C(=O)O
# Tests used:
# [1] = target: T1, bradykinin type 2 (BK2) receptors (Rattus norvegicus, UniProt P25023); assay: standard rat uterus pA2 assay (in vitro B2 antagonist activity); conditions: for % Recovery: recovery of agonist response after washing 40 minutes following highest antagonist concentration; for B2 pA2 (Rat Uterus): antagonist preincubated for 15 minutes; for activity in rat uterus functional tissue assay: summary of Table 1
# T1 construct: Uterine horns were removed, placed under a 1 g resting tension in 4 mL tissue baths; from tissue; host or cells: rat uterine horns (Sprague-Dawley, stilbesterol-pretreated)
# T1 sequence (P25023 1-396): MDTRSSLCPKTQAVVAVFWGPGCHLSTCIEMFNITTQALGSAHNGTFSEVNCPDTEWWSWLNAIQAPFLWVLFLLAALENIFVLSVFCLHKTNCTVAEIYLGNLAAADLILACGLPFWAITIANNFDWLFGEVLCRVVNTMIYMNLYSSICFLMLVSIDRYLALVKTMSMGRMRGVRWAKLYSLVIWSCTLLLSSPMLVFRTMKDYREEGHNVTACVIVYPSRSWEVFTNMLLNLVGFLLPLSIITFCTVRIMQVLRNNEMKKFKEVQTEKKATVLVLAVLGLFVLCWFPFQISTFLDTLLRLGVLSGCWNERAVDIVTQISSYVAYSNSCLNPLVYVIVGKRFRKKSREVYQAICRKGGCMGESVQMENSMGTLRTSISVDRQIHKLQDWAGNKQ
# Procedure: The standard rat uterus pA2 assay was conducted as follows:
# Female Sprague-Dawley rats (200-250 g) were pretreated with stilbesterol (100 μg/kg) and killed 18 hours later by a blow on the head and exsanguinated. Uterine horns were removed, placed under a 1 g resting tension in 4 mL tissue baths containing De Jalon's solution at 31° C. and aerated. […] Antagonist potency was calculated according to the method of Arunlakshana and Schild (Arunlakshana, O., Schild, H. O., Br. J. Pharmacology 14 48-58 (1959)). […] The difference in pD2 values compared to concurrent control reflected the "percentage recovery" of agonist response.
# [2] = target: T2, bradykinin type 1 (BK1) receptors (Oryctolagus cuniculus, UniProt P48748); assay: rabbit aorta in vitro B1 antagonist activity; conditions: reversal of des-Arg9-bradykinin contraction of rabbit aorta strips
# T2 construct: Spiral strips were mounted under 2 g resting tension in 5 mL tissue baths; from tissue; host or cells: rabbit thoracic aorta spiral strips (New Zealand White)
# T2 sequence (P48748 1-352): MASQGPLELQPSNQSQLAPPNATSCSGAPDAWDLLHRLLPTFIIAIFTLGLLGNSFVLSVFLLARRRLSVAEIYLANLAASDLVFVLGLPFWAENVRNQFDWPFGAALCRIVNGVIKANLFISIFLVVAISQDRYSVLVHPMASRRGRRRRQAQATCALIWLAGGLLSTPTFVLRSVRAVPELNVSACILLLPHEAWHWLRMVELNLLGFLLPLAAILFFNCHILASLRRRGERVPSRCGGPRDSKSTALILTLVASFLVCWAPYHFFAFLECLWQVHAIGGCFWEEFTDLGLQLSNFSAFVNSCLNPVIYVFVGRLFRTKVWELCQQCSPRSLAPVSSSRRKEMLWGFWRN
# Procedure: Female New Zealand White rabbits were killed by overdose of pentobarbital (80 mg/kg i.v.) and the thoracic aorta removed. […] Two concentration-effect curves for des-Arg^9 -bradykinin were constructed at 1 and 3 hours. At five hours des-Arg^9 -bradykinin was added to the bath to a final concentration of […]. This produced stable, sustained and prolonged contractions of up to 45 minutes.
# guinea pig ileum = assay: activity on guinea pig ileum tissue
# BK2 receptors = target: T3, BK2 receptors (Oryctolagus cuniculus, UniProt Q28642); assay: rabbit blood pressure BK2 ED50; format: in vivo
# T3 construct: from tissue; host or cells: live anesthetized New Zealand White rabbit (vascular system)
# T3 sequence (Q28642 1-367): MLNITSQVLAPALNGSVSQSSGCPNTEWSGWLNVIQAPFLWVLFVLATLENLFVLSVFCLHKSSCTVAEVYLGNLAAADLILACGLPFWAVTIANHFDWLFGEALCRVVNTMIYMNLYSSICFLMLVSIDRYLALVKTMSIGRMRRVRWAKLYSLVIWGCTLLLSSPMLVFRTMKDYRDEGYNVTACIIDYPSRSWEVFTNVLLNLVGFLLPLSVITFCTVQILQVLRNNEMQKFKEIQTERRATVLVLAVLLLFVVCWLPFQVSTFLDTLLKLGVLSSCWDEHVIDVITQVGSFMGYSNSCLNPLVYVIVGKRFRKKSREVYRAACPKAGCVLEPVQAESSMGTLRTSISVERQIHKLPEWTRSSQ
# Excerpt: (§1) Male New Zealand White rabbits were anesthetized with pentobarbital and femoral arteries were cannulated for the recording of blood pressure. Cannulae were placed in the femoral veins for the bolus injection or continuous infusion of compounds. […] Following an equilibration period the specific experimental procedure was started.
# BK1 receptors = target: T4, BK1 receptors (Oryctolagus cuniculus, UniProt P48748); assay: LPS-treated rabbit blood pressure BK1 ED50; format: in vivo; conditions: for BK1 ED50: LPS-treated rabbit, i.v. infusion
# T4 construct: upregulation of BK1 receptors in the vascular system; from tissue; host or cells: live anesthetized LPS-pretreated New Zealand White rabbit (vascular system)
# T4 sequence (P48748 1-352): T2 sequence (P48748 1-352)
# Procedure: as §1
# Stimulation of both pre-existing BK2 and induced BK1, receptors produces hypotension. […] Both agonists were tested in the absence and then in the presence of increasing doses of CP-0597 (1, 3, and 10 μg/kg/min).
# [3] = system: blood pressure responses to vasoactive agents; assay: selectivity of intravenous CP-0597, rabbit blood pressure; format: in vivo; conditions: 0.1 μg/kg/min i.v.; for responses to the other vasoactive agents after antagonist: acetylcholine, norepinephrine, substance p, angiotensin, angiotensin II
# Excerpt: as §1
# response to Bradykinin [4] = assay: duration of action of intravenously infused CP-0597, rabbit blood pressure; format: in vivo; conditions: one hour (60 min) after 0.1 μg/kg/min infusion stopped
# Procedure: as §1
# CP-0597 (0.1 μg/kg/min) was intravenously infused for the above mentioned selectivity experiments.
# [5] = system: blood pressure responses to vasoactive agents; assay: selectivity of subcutaneous CP-0597, rat blood pressure; format: in vivo; conditions: 1.0 mg/kg s.c., thirty minutes after injection
# Procedure: (§2) Male Sprague-Dawley rats were anesthetized with pentobarbital and femoral arteries were cannulated for the recording of blood pressure. Both femoral veins in each animal were cannulated for the administration of test compounds. […] Following an equilibration period the specific experimental procedure was started.
# Animals were then treated with CP-0597 (1.0 mg/kg s.c.). Thirty minutes after the s.c. injection each vasoactive agent was retested and compared to pre-antagonist responses.
# response to Bradykinin [6] = assay: duration of action of i.v. bolus injections of CP-0597, rat blood pressure; format: in vivo
# Procedure: as §2
# At 3 μg/kg the response was ca. 50% inhibited and had returned to control by 30 minutes. At […] and 30 μg/kg the response was 100% inhibited with a 50% return to control level by 60 minutes and full recovery of response by 90 minutes.
# response to Bradykinin [7] = assay: duration of action of subcutaneous CP-0597, rat blood pressure; format: in vivo; conditions: for inhibition of responses to Bradykinin, duration of action (s.c.): rat
# Procedure: as §2
# Animals were then given subcutaneous injections of CP-0597 (1 and 3 mg/kg s.c.). […] At 1 mg/kg s.c. the responses were still 100% inhibited at 3 hours post injection. At 3 mg/kg s.c. the responses were still 100% inhibited at 5 hours post injection.
# [8] = target: T5, bradykinin type 2 (BK2) receptors (Cavia porcellus, UniProt O70526); assay: antagonist binding to guinea pig ileum (tritium labeled bradykinin)
# T5 construct: from tissue; host or cells: guinea pig ileum membrane preparation (Hartley strain)
# T5 sequence (O70526 1-372): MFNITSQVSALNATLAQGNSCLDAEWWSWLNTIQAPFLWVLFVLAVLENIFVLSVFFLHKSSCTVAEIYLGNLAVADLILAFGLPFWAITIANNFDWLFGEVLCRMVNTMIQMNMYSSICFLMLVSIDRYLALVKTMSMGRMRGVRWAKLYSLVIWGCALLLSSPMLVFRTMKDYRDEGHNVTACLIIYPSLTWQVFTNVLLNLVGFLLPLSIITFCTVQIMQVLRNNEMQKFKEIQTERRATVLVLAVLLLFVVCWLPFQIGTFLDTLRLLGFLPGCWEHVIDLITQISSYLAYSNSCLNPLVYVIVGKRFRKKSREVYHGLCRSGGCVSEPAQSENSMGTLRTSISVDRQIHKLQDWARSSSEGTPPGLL
# Procedure: Radioactivity was determined by liquid scintillation counting.
# [9] = stability in porcine kidney cortical membranes; format: in vitro ADME; conditions: pig, pH 7.2, porcine kidney preparation
# Procedure: (§3) Rat or porcine lung and kidney cortical membranes were prepared using differential centrifugation as described by Skidgel (Booth, A. G. et al., Biochemical Journal 142, 575-581 (1974)) for lung or by Booth (Erdos, E. G. et al., Biochemical Pharmacology 33 3471-3478 (1984)) for kidney. Membrane preparations were stored at -20° C. […] Ten microliters of this working solution were delivered into a series of Eppendorf tubes, followed by human or guinea pig plasma (90 μL) or PBS as a control blank, and incubated for various time periods. At each time point the reaction was quenched with the addition of 100 μL 1N HCl in either acetonitrile or ethanol. Samples were allowed to stand approximately fifteen minutes and were then spun at 14,000 rpm for 10 minutes. Supernatant fractions were removed, filtered through 0.22 μM filters (Millipore) and analyzed by HPLC (C18, 12-80% acetonitrile in water, both containing 0.1% trifluoroacetic acid, monitoring at 214 nm.
# (§4) Porcine kidney lung preparations were diluted 1:10 with PBS; rat kidney preparations were diluted 1:100 with PBS; porcine lung preparations were diluted 1:1 in PBS. […] At various time points the reactions were quenched by the addition of 100 μL of ethanol, centrifuged and analyzed by HPLC as described above. The half-life for the disappearance of the HPLC peak was determined using the computer program ENZFIT (Elsevier).
# in vitro = conditions: pig, lung membranes, pH 7.2
# Procedure: as §3, §4
# [10] = i.v. bolus 10 μg/kg (text: 20%; Table 3: 10 μg/kg/min)
# [11] = i.v. bolus 30 μg/kg (Table 3: 30 μg/kg/min)
substance,measurement,setting,value
D-Arg-Arg-Pro-Hyp-Gly-Thi-Ser-D-Phe-NPhg-Arg [Compound 16],% Recovery,[1],60%
D-Arg-Arg-Pro-Hyp-Gly-Thi-Ser-NPeg-Oic-Arg [Compound 11],B2 pA2 (Rat Uterus),[1],Agonist
same,activity in rat uterus functional tissue assay,[1],agonists
δ-Gpa-Arg-Pro-Hyp-Gly-Thi-Ser-D-Tic-NChg-Arg [Compound 13],% Recovery,[1],66%
same,activity in rat uterus functional tissue assay,[1],highly potent antagonists
δ-Gpa-Pro-Hyp-Gly-Thi-Ser-D-Tic-NChg-Arg [Compound 14],% Recovery,[1],81%
D-Arg-Arg-Pro-Hyp-Gly-Thi-Ser-D-NBng-Oic-Arg [Compound 6],% Recovery,[1],93%
D-Arg-Arg-Pro-Hyp-Gly-Thi-Ser-Igl*-NChg-Arg [Compound 4],B2 pA2 (Rat Uterus),[1],Agonist
same,activity in rat uterus functional tissue assay,[1],agonists
"[dR]RP[Hyp][2Thi]GS[dTic][Oic]R [CP-0589, reference compound]",% Recovery,[1],57%
D-Arg-Arg-Pro-Hyp-Gly-Thi-Ser-D-Phe-NChg-Arg [Compound 9],% Recovery,[1],87%
"D-Arg-Arg-Pro-Hyp-Gly-Thi-Ser-D-Tic-Oic-Arg [HOE-140, reference compound]",% Recovery,[1],41%
same,B1 (Rabbit Aorta),[2],Inactive
D-Arg-Arg-Pro-Hyp-Gly-Thi-Ser-D-Tic-NMch-Arg [Compound 12],B2 pA2 (Rat Uterus),[1],Agonist
same,activity in rat uterus functional tissue assay,[1],agonists
same,activity on guinea pig ileum,guinea pig ileum,antagonist activity
D-Arg-Arg-Pro-Hyp-Gly-Thi-Ser-D-Tic-NChg-Arg [Compound 5],% Recovery,[1],71%
same,activity in rat uterus functional tissue assay,[1],highly potent antagonists
same,ED50 blocking bradykinin at BK2 receptors in live rabbits,BK2 receptors,0.051 µg/kg/min
same,BK2 ED50,BK2 receptors; i.v. infusion,29.2 pmol/kg/min
same,BK1 ED50,BK1 receptors,1.7 nmol/kg/min
same,BK1 ED50,"BK1 receptors; des-Arg9 Bradykinin, listed as CP-0597",2.9 ± 0.92 µg/kg/min and 2.9 µg/kg/min
same,BK1 blocking activity in live rabbits,BK1 receptors; rabbit,2.9 µg/kg/min
same,response to Bradykinin after antagonist,[3],antagonized
same,responses to the other vasoactive agents after antagonist,[3],not affected
same,responses to the other vasoactive agents after antagonist,[3]; listed as CP-0597,unaffected
same,"inhibition of the response to Bradykinin, duration of action (i.v. infusion)",response to Bradykinin [4],100%
same,response to Bradykinin after antagonist,[5],antagonized
same,responses to the other vasoactive agents after antagonist,[5]; 1 mg/kg,not affected
same,responses to the other vasoactive agents after antagonist,"[5]; listed as CP-0597, 1 mg/kg",unaffected
same,time of return to control (100% recovery),response to Bradykinin [6]; i.v. bolus 3 μg/kg (Table 3: 3.0 μg/kg/min),≤ 30 min
same,inhibition of response to Bradykinin,response to Bradykinin [6]; [10],100%
same,time of 50% recovery,response to Bradykinin [6]; [10],≤ 60 min
same,time of 100% recovery,response to Bradykinin [6]; [10],≤ 90 min
same,inhibition of response to Bradykinin,response to Bradykinin [6]; [11],100%
same,time of 50% recovery,response to Bradykinin [6]; [11],≤ 60 min
same,time of 100% recovery,response to Bradykinin [6]; [11],≤ 90 min
same,"inhibition of responses to Bradykinin, duration of action (s.c.)","response to Bradykinin [7]; 1 mg/kg s.c., 3 hours post injection",100%
same,"inhibition of responses to Bradykinin, duration of action (s.c.)","response to Bradykinin [7]; 3 mg/kg s.c., 5 hours post injection",100%
same,blockage of agonist effect,"response to Bradykinin [7]; up to 5 hours after a subcutaneous dose (3 mg/Kg, rat)",complete blockage
D-Arg-Arg-Pro-Hyp-Gly-Thi-Ser-D-NBng-NChg-Arg [Compound 7],B2 pA2 (Rat Uterus),[1],Agonist
same,activity in rat uterus functional tissue assay,[1],agonists
D-Arg-Arg-Pro-Hyp-Gly-Thi-Ser-DTic-NChg [Compound 2],% Recovery,[1],0%
D-Arg-Arg-Pro-Hyp-Gly-Thi-Ser-Igl*-NChg-Arg [Compound 3],% Recovery,[1],100%
D-Arg-Arg-Pro-Hyp-Gly-Thi-Ser-D-Tic-NPhg-Arg [Compound 15],% Recovery,[1],54%
same,activity in rat uterus functional tissue assay,[1],highly potent antagonists
"[dR]RP[Hyp]GGS[dTic][Oic]R [CP-0601, reference compound]",% Recovery,[1],75%
D-Arg-Arg-Pro-Hyp-Gly-Thi-Ser-D-Cpg-NChg-Arg [Compound 10],% Recovery,[1],75%
D-Arg-Arg-Pro-Hyp-Gly-Thi-Ser-NBng-Oic [Compound 1],% Recovery,[1],32%
D-Arg-Arg-Hyp-Hyp-Gly-Thi-Ser-D-Tic-NChg-Arg [Compound 17],% Recovery,[1],60%
same,activity in rat uterus functional tissue assay,[1],highly potent antagonists
D-Arg-Arg-Pro-Hyp-Gly-Thi-Ser-D-Tic-NCpg-Arg [Compound 8],% Recovery,[1],56%
same,activity in rat uterus functional tissue assay,[1],highly potent antagonists
"RPPGFSPFR [Bradykinin, Arg^1 -Pro^2 -Pro^3 -Gly^4 -Phe^5 -Ser^6 -Pro^7 -Phe^8 -Arg^9]",Ki,[8],0.0301 nM
same,half-life at 100 µM,[9],3 min
same,half-life at 100 µM,in vitro,3 min

# Source: US5700779A (Cortech, Inc., priority 1996, dated 1997)
